SMILES strings stand for the structures.

This is an account of results in patent publication US9403791B1, “Coumarin derivatives for cancer therapy” (Wellesley College, priority 2013, dated 2016).

Data set [1] concerns pancreatic cancer cell line PANC-1. The note with it: within 24 hours; cited from earlier work.
Data set [2] relates to PANC-1 cells. Put plainly: In vitro cytotoxicity assay (WST-8 cell viability), nutrient rich media. In kind it is cell-based. As to the method:
(§1) PANC-1 cells, ranging from passage numbers 30-36 and 40-45, were seeded in 96-well plates at a density of 2.5×10^4 cells per well and incubated in fresh Dulbecco's modified Eagle's medium (DMEM, Sigma Aldrich) at 37° C. and 5% CO2 for 24 hours. Cells were then washed with PBS (Sigma Aldrich) and then subjected to the addition of either DMEM or nutrient deprived media (absence of glucose, amino acid and serum). Serially diluted coumarin compounds were added to the cells followed by a 24-hour incubation at 37° C. and 5% CO2. Cell morphology was then observed under an inverted microscope. Cells were then washed with PBS, and fresh DMEM and 10% WST-8 cell counting kit solution (Dojindo Molecular Technologies) were added to each well. The cells were incubated for 3-hours at 37° C. and 5% CO2. Absorbance values were measured using a plate reader at 450 nm, and cell viability was calculated using the following equation % Cell viability=[{Abstest sample−Absblank}/{Abscontrol−Absblank}]*100. The cell viability of compounds 2, 3 and 4 is seen in FIG. 1a.
The assay detailed above was performed additional times and results were obtained. Briefly, PANC-1 cells, ranging from passage numbers 30-36 and 40-45, were seeded in 96-well plates at a density of 2.5×10^4 cells per well density and incubated in fresh Dulbecco's modified Eagle's medium (DMEM, Sigma Aldrich) at 37° C., 5% CO2 for 24 hours. Cells were then washed with PBS (Sigma Aldrich) and then subjected to the addition of either nutrient rich media (NRM) or nutrient deprived media (NDM). […] Absorbance values were measured with a plate reader at 450 nm, and cell viability was calculated using the equation % Cell viability=[{Abstest sample−Absblank}/{Abscontrol−Absblank}]*100. The cell viability of compounds 2, 3 and 4 (e.g., viability of cells following treatment with compounds 2, 3, or 4 was assessed) is shown in FIG. 1b, and is consistent with the results shown in FIG. 1a. LC50 values were determined and are as follows.

In data set [3] the test system is PANC-1 cells. The experiment in a line: In vitro cytotoxicity assay (WST-8 cell viability), nutrient deprived media. In kind it is cell-based. The note with it: for CC50: Homo sapiens, PANC-1 cells, 24-hour incubation, WST-8 cell counting kit, nutrient deprived media (medium not restated at table), read-out: LC50 (the source's name). As to the method: as §1
The assay detailed above was performed additional times and results were obtained. Briefly, PANC-1 cells, ranging from passage numbers 30-36 and 40-45, were seeded in 96-well plates at a density of 2.5×10^4 cells per well density and incubated in fresh Dulbecco's modified Eagle's medium (DMEM, Sigma Aldrich) at 37° C., 5% CO2 for 24 hours. Cells were then washed with PBS (Sigma Aldrich) and then subjected to the addition of either nutrient rich media (NRM) or nutrient deprived media (NDM). Serially diluted coumarin compounds (5.5% DMSO in NDM) were added to the cells followed by a 24-hour incubation at 37° C., 5% CO2. Cell morphology was then observed under an inverted microscope. Cells were then washed with PBS, and fresh DMEM and 10% WST-8 cell counting kit (Dojindo Molecular Technologies) were added for a 3-hour incubation at 37° C., 5% CO2. Absorbance values were measured with a plate reader at 450 nm, and cell viability was calculated using the equation % Cell viability=[{Abstest sample−Absblank}/{Abscontrol−Absblank}]*100. The cell viability of compounds 2, 3 and 4 (e.g., viability of cells following treatment with compounds 2, 3, or 4 was assessed) is shown in FIG. 1b, and is consistent with the results shown in FIG. 1a. LC50 values were determined and are as follows.
(In general: Formazan colour is commonly taken as a measure of viable cells.)

Data set [4] has as its system PANC-1 cells. The experiment in a line: Morphological change observation under inverted microscope, nutrient-deprived conditions. In kind it is cell-based. The conditions noted are these: 6.25 μM, 12.5 μM, and 25 μM, 24 hour incubation. As to the method:
as §1, with “Cells were then washed with PBS, and fresh DMEM and 10% WST-8 cell counting kit solution (Dojindo Molecular Technologies) were added to each well. The cells were incubated for 3-hours at 37° C. and 5% CO2.” left out, “The cell viability of compounds 2, 3 and 4 is seen in FIG. 1a.” left out
The assay detailed above was performed additional times and results were obtained. […] Absorbance values were measured with a plate reader at 450 nm, and cell viability was calculated using the equation % Cell viability=[{Abstest sample−Absblank}/{Abscontrol−Absblank}]*100. The cell viability of compounds 2, 3 and 4 (e.g., viability of cells following treatment with compounds 2, 3, or 4 was assessed) is shown in FIG. 1b, and is consistent with the results shown in FIG. 1a. LC50 values were determined and are as follows.

As for `CC(C)(OC(=O)C=Cc1ccc(O)cc1)C1Cc2c(ccc3ccc(=O)oc23)O1` (centres unmarked) [Angelmarin, 11-O-(p-hydroxy-cinnamoyl) columbianetin], the “cytotoxicity against PANC-1 under nutrient starvation conditions” value in data set [1] is on record as “exhibit cytotoxicity”.
For `CC(C)=CCOc1ccc2oc(=O)ccc2c1` [Compound 2, 6-((3-methylbut-2-en-1-yl)oxy)-2H-chromen-2-one], the “cytotoxic activity when cells cultured under nutrient-rich conditions” value (from here on “cytotoxic activity when cells cultured”) in data set [2] is on record as “no significant cytotoxic activity”. Moreover, in data set [3], the CC50 is > 100 µM and the “cytotoxicity towards PANC-1 cells under nutrient starvation conditions” value (“cytotoxicity towards PANC-1 cells” for short) is listed as “preferential cytotoxicity”.
In the case of `CC(C)=CCC/C(C)=C/COc1ccc2oc(=O)ccc2c1` [Compound 3, (E)-6-((3,7-dimethylocta-2,6-dien-1-yl)oxy)-2H-chromen-2-one], the “cytotoxic activity when cells cultured” value in data set [2] is “no significant cytotoxic activity”. Moreover, in data set [3], the CC50 stood at 12 µM and the “cytotoxicity towards PANC-1 cells” value was “preferential cytotoxicity”.
For the molecule `CC(C)=CCC/C(C)=C/CC/C(C)=C/COc1ccc2oc(=O)ccc2c1` [Compound 4, 6-(((2E,6E)-3,7,11-trimethyldodeca-2,6,10-trien-1-yl)oxy)-2H-chromen-2-one], the “morphological changes to PANC-1 cells” value in data set [4] is “induced apoptosis-like morphological changes”. The “cytotoxic activity when cells cultured” value in data set [2] is “no significant cytotoxic activity”. Moreover, in data set [3], the CC50 turned out to be 4 µM and the “cytotoxicity towards PANC-1 cells” value is reported as “preferential cytotoxicity”.
